Eight molecules from ChEMBL document CHEMBL5131574, “Discovery of Inhibitors of DNA Methyltransferase 2, an Epitranscriptomic Modulator and Potential Target for Cancer Treatment” (J Med Chem, 2022) can be followed below.

In general, Kd refers to the constant that tells how readily two partners part at equilibrium. Usually IC50 stands for the concentration that gives 50% inhibition. High values mean weaker potency in that assay, low ones greater potency in that assay. As usually defined, the inhibition is the percentage by which the read-out fell short of the control. By CC50 is commonly meant the concentration giving 50% cytotoxicity.

Data set [1] has as its target T1, tRNA (cytosine(38)-C(5))-methyltransferase (Homo sapiens, UniProt O14717).
T1 sequence (O14717 whole entry): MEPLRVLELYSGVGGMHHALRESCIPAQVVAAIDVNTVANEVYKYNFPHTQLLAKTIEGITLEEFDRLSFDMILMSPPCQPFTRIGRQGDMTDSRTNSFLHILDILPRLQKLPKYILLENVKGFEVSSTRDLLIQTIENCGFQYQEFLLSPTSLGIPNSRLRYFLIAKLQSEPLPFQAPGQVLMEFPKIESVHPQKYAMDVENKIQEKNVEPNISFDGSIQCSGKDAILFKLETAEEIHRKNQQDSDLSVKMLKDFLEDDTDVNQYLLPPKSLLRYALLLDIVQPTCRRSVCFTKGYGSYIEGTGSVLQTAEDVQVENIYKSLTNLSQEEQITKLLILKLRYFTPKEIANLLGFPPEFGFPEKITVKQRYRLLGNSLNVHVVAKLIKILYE
Nature of the data set: Binding affinity to full length human N-terminal his6-tagged DNMT2 expressed in Escherichia coli Rosetta2(DE3)pLysS assessed as dissociation constant at 100 uM by isothermal titration calorimetry assay. (Isothermal titration calorimetry measures the heat released or taken up as one component is titrated into another.)

Data set [2] has as its target T1, tRNA (cytosine(38)-C(5))-methyltransferase. Nature of the data set: Inhibition of full length human N-terminal his6-tagged DNMT2 expressed in Escherichia coli Rosetta2(DE3)pLysS by […] assay.
Data set [3] in a line: Selectivity ratio of Kd for binding affinity to full length human N-terminal his6-tagged DNMT2 expressed in Escherichia coli Rosetta2(DE3)pLysS assessed as dissociation constant to IC50 for inhibition of full length human N-terminal his6-tagged DNMT2 expressed in Escherichia coli Rosetta2(DE3)pLysS.
Data set [4] concerns the target T2, tRNA (cytosine(38)-C(5))-methyltransferase (Homo sapiens) (UniProt O14717).
T2 sequence (whole entry): T1 sequence (O14717 whole entry)
The data set can be described thus: Binding affinity to full length human N-terminal his6-tagged DNMT2 expressed in Escherichia coli Rosetta2(DE3)pLysS assessed as gibbs free energy change at 100 uM by isothermal titration calorimetry assay.

Data set [5] addresses T2, tRNA (cytosine(38)-C(5))-methyltransferase (Homo sapiens). The data set can be described thus: Binding affinity to full length human N-terminal his6-tagged DNMT2 expressed in Escherichia coli Rosetta2(DE3)pLysS assessed as change in enthalpy change at 100 uM by isothermal titration calorimetry assay.
Data set [6] shares this target. Nature of the data set: Binding affinity to full length human N-terminal his6-tagged DNMT2 expressed in Escherichia coli Rosetta2(DE3)pLysS assessed as change in entropy at 100 uM by isothermal titration calorimetry assay.
Data set [7] deals with DNA (cytosine-5)-methyltransferase 3A (Homo sapiens) (UniProt Q9Y6K1). Nature of the data set: Inhibition of recombinant human DNMT3A-3L expressed in Escherichia coli Rosetta2(DE3)pLysS at 100 uM using Poly(dI-dC)-Poly(dI-dC) as substrate measured at 150 mins by liquid scintillation counting analysis.
The target in data set [8] is T3, tRNA (cytosine(72)-C(5))-methyltransferase NSUN6 (Homo sapiens) (UniProt Q8TEA1).
T3 sequence (whole entry): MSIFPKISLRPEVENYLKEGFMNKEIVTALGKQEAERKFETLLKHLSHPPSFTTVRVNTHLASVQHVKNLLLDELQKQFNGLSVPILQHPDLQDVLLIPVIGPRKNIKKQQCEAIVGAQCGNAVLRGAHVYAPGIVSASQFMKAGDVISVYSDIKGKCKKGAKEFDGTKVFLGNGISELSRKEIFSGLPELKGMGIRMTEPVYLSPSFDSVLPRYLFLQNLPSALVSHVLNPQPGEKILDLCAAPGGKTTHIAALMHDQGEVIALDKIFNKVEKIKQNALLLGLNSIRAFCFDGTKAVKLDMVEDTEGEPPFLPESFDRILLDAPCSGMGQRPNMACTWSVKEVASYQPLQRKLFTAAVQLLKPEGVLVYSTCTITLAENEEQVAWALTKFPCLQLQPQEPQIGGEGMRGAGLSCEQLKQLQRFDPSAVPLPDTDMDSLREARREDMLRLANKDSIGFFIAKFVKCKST
Nature of the data set: Inhibition of full length human NSUN6 expressed in Escherichia coli Rosetta2(DE3)pLysS at 100 uM measured at 20 mins by liquid scintillation counting analysis.

Data set [9] addresses T4, Histone-lysine N-methyltransferase EHMT2 (Homo sapiens) (UniProt Q96KQ7).
T4 sequence (whole entry): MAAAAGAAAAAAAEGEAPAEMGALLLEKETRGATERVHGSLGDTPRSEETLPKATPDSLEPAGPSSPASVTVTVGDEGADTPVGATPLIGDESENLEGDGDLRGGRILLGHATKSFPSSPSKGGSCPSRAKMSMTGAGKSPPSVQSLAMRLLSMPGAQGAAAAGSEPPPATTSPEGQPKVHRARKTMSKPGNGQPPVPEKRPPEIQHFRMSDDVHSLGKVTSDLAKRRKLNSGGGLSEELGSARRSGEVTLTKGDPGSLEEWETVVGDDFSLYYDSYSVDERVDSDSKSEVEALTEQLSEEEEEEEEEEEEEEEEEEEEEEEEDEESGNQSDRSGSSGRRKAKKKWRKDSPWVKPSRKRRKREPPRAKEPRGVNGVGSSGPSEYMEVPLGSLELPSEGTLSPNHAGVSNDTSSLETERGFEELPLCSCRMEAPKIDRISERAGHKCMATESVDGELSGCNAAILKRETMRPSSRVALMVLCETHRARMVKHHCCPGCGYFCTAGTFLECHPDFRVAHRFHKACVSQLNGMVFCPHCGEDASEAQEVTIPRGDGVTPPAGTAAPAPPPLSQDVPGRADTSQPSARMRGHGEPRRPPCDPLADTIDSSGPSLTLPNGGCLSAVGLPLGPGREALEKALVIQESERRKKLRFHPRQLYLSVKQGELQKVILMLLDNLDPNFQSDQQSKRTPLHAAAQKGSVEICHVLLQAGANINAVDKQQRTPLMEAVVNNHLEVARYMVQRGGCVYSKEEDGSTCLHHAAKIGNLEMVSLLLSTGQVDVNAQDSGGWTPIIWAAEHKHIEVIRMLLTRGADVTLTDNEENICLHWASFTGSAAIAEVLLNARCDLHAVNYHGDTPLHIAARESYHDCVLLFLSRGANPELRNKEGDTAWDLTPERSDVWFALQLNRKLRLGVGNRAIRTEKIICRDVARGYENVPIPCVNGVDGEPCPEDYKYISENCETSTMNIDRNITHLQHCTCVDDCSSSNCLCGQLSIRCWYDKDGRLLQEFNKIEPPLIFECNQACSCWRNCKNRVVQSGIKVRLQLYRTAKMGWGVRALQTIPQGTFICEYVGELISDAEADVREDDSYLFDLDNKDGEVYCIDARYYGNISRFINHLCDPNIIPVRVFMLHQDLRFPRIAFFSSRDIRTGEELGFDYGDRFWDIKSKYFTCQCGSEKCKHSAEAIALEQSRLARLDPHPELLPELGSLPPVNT
Nature of the data set: Inhibition of recombinant human EHMT2 G9a expressed in Escherichia coli Rosetta2(DE3)pLysS at 100 uM using histone H3 as substrate measured at 120 mins by liquid scintillation counting analysis.

Data set [10] addresses T2, tRNA (cytosine(38)-C(5))-methyltransferase (Homo sapiens). Nature of the data set: Inhibition of full length human N-terminal his6-tagged DNMT2 expressed in Escherichia coli Rosetta2(DE3)pLysS at 100 uM by liquid scintillation counting analysis.
The target in data set [11] is RNA cytosine C(5)-methyltransferase NSUN2 (Homo sapiens) (UniProt Q08J23). Nature of the data set: Inhibition of full length recombinant human NSUN2 expressed in Escherichia coli Rosetta2(DE3)pLysS at 100 uM measured at 20 mins by liquid scintillation counting analysis.
Data set [12] in a line: Stability of the compound in TRIS buffer at 7.4 pH assessed as hydrolysis of ethyl ester at 100 uM incubated for 24 hrs by LC-MS analysis. The conditions noted are these: pH 7.4, read-out: Drug degradation. In kind it is physicochemical.
Data set [13] in a line: Cytotoxicity against human HEK293 cells assessed as cell viability at 100 uM measured after 24 hrs by MTT assay. In kind it is toxicity, cell-based.
Data set [14] can be described thus: Permeability of the compound in human Caco-2 cells assessed as compound remaining by measuring ester form of the acceptor compartment incubated for 24 hrs by LC/MS analysis. The data set is classed as ADME, cell-based. The conditions noted are these: caco-2, 24 h. (Caco-2 monolayers are a common model of the intestinal barrier.)
Data set [15] can be described thus: Permeability of the compound in human Caco-2 cells assessed as compound remaining by measuring ester form of the donor compartment incubated for 24 hrs by LC/MS analysis. In kind it is ADME, cell-based. The conditions noted are these: read-out: Activity.
A short description of data set [16]: Permeability of the compound in human Caco-2 cells assessed as compound remaining by measuring acid form of the donor compartment incubated for 24 hrs by LC/MS analysis. As to conditions: caco-2, 24 h. In kind it is ADME, cell-based.
Data set [17] has as its target T2, tRNA (cytosine(38)-C(5))-methyltransferase (Homo sapiens). The data set can be described thus: Inhibition of DNMT2-mediated tRNA methylation in human HEK293 cells assessed as reduction in m5C at C38 of tRNA by measuring m5C level at 100 uM incubated for 24 hrs by bisulfite sequencing analysis. The data set is classed as cell-based.

DNA (cytosine-5)-methyltransferase 3A (Homo sapiens), sequence (Q9Y6K1 whole entry, looked up): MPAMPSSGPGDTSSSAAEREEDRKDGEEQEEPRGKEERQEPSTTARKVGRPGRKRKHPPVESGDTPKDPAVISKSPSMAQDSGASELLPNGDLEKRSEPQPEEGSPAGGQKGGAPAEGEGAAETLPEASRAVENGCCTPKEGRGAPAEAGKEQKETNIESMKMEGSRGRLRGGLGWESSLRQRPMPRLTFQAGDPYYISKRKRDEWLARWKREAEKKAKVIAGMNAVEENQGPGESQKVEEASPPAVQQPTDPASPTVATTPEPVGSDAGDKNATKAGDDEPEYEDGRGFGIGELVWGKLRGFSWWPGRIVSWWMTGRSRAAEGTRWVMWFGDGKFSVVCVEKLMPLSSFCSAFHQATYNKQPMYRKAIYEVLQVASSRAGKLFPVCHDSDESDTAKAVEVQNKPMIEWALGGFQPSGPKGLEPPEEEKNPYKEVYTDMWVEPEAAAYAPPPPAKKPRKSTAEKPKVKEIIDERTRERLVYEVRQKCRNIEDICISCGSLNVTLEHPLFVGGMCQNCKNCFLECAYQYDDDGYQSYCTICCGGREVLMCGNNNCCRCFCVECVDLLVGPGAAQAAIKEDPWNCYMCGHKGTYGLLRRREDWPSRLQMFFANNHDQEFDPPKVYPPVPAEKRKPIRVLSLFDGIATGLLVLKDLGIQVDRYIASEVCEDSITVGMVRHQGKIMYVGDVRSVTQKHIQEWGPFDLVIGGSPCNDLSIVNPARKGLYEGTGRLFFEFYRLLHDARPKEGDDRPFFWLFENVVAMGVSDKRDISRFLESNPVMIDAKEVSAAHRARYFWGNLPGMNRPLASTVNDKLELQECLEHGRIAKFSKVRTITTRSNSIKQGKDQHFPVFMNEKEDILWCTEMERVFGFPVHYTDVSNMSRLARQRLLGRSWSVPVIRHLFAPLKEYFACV
RNA cytosine C(5)-methyltransferase NSUN2 (Homo sapiens), sequence (Q08J23 whole entry): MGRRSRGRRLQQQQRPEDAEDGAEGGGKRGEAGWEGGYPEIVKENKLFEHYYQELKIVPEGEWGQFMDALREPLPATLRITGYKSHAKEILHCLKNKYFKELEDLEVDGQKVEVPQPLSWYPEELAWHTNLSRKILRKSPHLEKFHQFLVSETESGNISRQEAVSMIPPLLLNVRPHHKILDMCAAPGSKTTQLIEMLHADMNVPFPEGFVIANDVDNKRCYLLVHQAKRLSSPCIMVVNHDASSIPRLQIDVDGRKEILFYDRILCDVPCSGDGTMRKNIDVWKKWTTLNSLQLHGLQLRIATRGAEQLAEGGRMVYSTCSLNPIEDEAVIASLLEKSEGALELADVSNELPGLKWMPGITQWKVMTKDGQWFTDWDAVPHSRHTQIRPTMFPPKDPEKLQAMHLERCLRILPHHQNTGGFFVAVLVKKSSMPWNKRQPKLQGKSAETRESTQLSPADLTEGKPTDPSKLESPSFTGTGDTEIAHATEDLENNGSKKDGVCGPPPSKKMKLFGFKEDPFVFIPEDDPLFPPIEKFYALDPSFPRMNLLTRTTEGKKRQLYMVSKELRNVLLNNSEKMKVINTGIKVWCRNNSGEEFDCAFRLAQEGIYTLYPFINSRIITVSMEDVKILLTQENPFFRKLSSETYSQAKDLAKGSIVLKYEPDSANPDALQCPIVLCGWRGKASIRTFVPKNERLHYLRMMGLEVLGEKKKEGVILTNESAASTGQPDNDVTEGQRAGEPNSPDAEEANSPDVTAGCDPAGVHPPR

With `C#CCN(CC[C@H](N)C(=O)O)C[C@H]1O[C@@H](n2cnc3c(N)ncnc32)[C@H](O)[C@@H]1O`, the Kd in [1] worked out at 11.4 µM. Besides, the IC50 in data set [2] was determined as 77.1 µM. In data set [3], the Selectivity ratio was found to be 7. Also, the deltaG in [4] was -6.74 kcal/mol. Moreover, the deltaH in data set [5] was -9.03 kcal/mol. For the same molecule, the -TdeltaS in data set [6] is 2.29 kcal/mol. In addition, the inhibition stood at 97.6% in data set [7], 25.9% in data set [8], 22.8% in [9] and 72.2% in [10].
As for `CC#CCN(CC[C@H](N)C(=O)O)C[C@H]1O[C@@H](n2cnc3c(N)ncnc32)[C@H](O)[C@@H]1O`, the results for the inhibition in data set [7], in [8] and in data set [9] were 93.9%, 12.9% and 37.6%, respectively.
On to `Nc1ncnc2c1ncn2[C@@H]1O[C@H](CSCC[C@H](N)C(=O)O)[C@@H](O)[C@H]1O` [S-ADENOSYLHOMOCYSTEINE], for which the Kd in data set [1] was 13.6 µM. Besides, half-maximal inhibition in data set [2] (IC50) required 15.8 µM. Besides, in [4], the deltaG is -6.64 kcal/mol. In [5], the deltaH is -13.2 kcal/mol. The -TdeltaS in data set [6] was found to be 6.57 kcal/mol. The inhibition was determined as 96.7% in [7]; 97.3% in data set [11]; 99.6% in [8]; 94.3% in data set [9]; 85.7% in data set [10].
With `C#CC(C)N(CC[C@H](N)C(=O)OCC)C[C@H]1O[C@@H](n2cnc3c(N)ncnc32)[C@H](O)[C@@H]1O` (some centres undefined), in data set [12], the degraded at 24 h, 100 µM worked out at 60%. The CC50 at 24 h in data set [13] is over 500 µM. The Activity in data set [14] is 2%; in [16] it was “<= 78%”. Further, the remaining at 24 h in [15] came to 20%.
With `Nc1ncnc2c1ncn2[C@@H]1O[C@H](C[C@@H](N)CC[C@H](N)C(=O)O)[C@@H](O)[C@H]1O` [SINEFUNGIN], the Kd in data set [1] was 7.5 µM. The IC50 in [2] stood at 13.2 µM. Besides, in [3], the Selectivity ratio came out at 2. The deltaG in [4] is -7 kcal/mol. In addition, the deltaH in data set [5] is -5.86 kcal/mol. In addition, in [6], the -TdeltaS was -1.15 kcal/mol. For the same molecule, the inhibition in data set [7] was 98%; in data set [11], 77.1%; in data set [8], 70.2%; in data set [9], 43%; in [10] it was 83.5%; in data set [17], 94%. Besides, the CC50 at 24 h in data set [13] is over 500 µM.
Regarding `C#CC(C)N(CC[C@H](N)C(=O)O)C[C@H]1O[C@@H](n2cnc3c(N)ncnc32)[C@H](O)[C@@H]1O` (some centres undefined), the inhibition in data set [7] is 84.2%; in data set [9], 71%. For the same molecule, the CC50 at 24 h in data set [13] was over 500 µM. Besides, the Activity in [14] stood at 0.6%.
With `CCC#CCN(CC[C@H](N)C(=O)O)C[C@H]1O[C@@H](n2cnc3c(N)ncnc32)[C@H](O)[C@@H]1O`, the values for the inhibition in data set [7], in [8] and in data set [9] were 95.3%, 22.7% and 32%, respectively.
For `CCCN(CC[C@H](N)C(=O)O)C[C@H]1O[C@@H](n2cnc3c(N)ncnc32)[C@H](O)[C@@H]1O`, the CC50 at 24 h in data set [13] was over 500 µM.
